SMILES strings stand for the structures.

This assay relates to HCT116 MTAP-deleted cell lines. In words: Cell viability assay for HCT116 isogenic pair (CellTitre-Glo, 7 days). It is filed as cell-based. The following applies: Homo sapiens, HCT-116, 168 h, 7 days of treatment, cell line not given. Put shortly: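 HCT116 WT or MTAP-deleted cells, 100 per well, seeded onto pre-spotted PRMT5 inhibitor dose series in RPMI 1640/10% heat-inactivated FBS and grown 7 days at 37° C, 5% CO2. CellTiter-Glo luminescence then read; CC50 (nM) from 4-parameter logistic fit.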
Turning to `C[C@@H]1C[C@@H]2CCc3cc(C(F)(F)F)ccc3[C@@H]2N(C(=O)c2cc3c(cn2)nc(N)c2cnn(C)c23)C1` (racemic) [Example Ca-39, (Rac)-(4-amino-1-methyl-1H-pyrazolo[4,3-c][1,7]naphthyridin-8-yl)((3R,4aS,10bR)-3-methyl-8-(trifluoromethyl)-3,4,4a,5,6,10b-hexahydrobenzo[h]quinolin-1(2H)-yl)methanone], half-maximal cytotoxicity (CC50) was put at 0.079 µM. For the compound `Nc1nc2cnc(C(=O)N3CC[C@H]4C[C@@H]3c3ccc(C(F)(F)F)nc3O4)cc2c2c1COC2` [Example Ca-18, (4-amino-1,3-dihydrofuro[3,4-c][1,7]naphthyridin-8-yl)((2S,6R)-9-(trifluoromethyl)-3,4-dihydro-2H-2,6-methanopyrido[2,3-b][1,5]oxazocin-5(6H)-yl)methanone], the midpoint of cytotoxicity, the CC50, lay at 0.034 µM. The same measure for `Cn1ncc2c3cc(C(=O)N4CC[C@H]5C[C@@H]4c4ccc(C(F)(F)F)cc4O5)ncc3nc(N)c21` [Example Ca-44, (4-amino-3-methyl-3H-pyrazolo[3,4-c][1,7]naphthyridin-8-yl)((2S,6R)-9-(trifluoromethyl)-3,4-dihydro-2H-2,6-methanobenzo[b][1,5]oxazocin-5(6H)-yl)methanone]: 0.139 µM; for `[2H]C1([2H])CC[C@@H]2Oc3cc(C(F)(F)F)ccc3[C@@H]2N1C(=O)c1cc2c3c(c(N)nc2cn1)COC3` [Example Ca-48, (4-amino-1,3-dihydrofuro[3,4-c][1,7]naphthyridin-8-yl)((4aS,9bS)-7-(trifluoromethyl)-3,4,4a,9b-tetrahydrobenzofuro[3,2-b]pyridin-1(2H)-yl-2,2-d2)methanone]: 0.012 µM. The same measure for `Cn1ncc2c(N)nc3cnc(C(=O)N4CCO[C@@H]5Cc6cc(C(F)(F)F)cc(F)c6[C@@H]54)cc3c21` [Example Ca-51, (4-amino-1-methyl-1H-pyrazolo[4,3-c][1,7]naphthyridin-8-yl)((4aS,9aR)-5-fluoro-7-(trifluoromethyl)-2,3,9,9a-tetrahydroindeno[2,1-b][1,4]oxazin-4(4aH)-yl)methanone]: 0.195 µM; for `Cn1ncc2c(N)nc3cnc(C(=O)N4CCC[C@@H]5Cc6cc(C(F)(F)F)ccc6[C@@H]54)cc3c21` (racemic) [Example Ca-24, (Rac)-(4-amino-1-methyl-1H-pyrazolo[4,3-c][1,7]naphthyridin-8-yl)((4aR,9bR)-7-(trifluoromethyl)-2,3,4,4a,5,9b-hexahydro-1H-indeno[1,2-b]pyridin-1-yl)methanone]: 0.042 µM.

These data come from patent publication US20250154172A1, “PRMT5 INHIBITORS AND USES THEREOF” (Gilead Sciences, Inc., priority 2023, published 2025).
